Assay results taken from patent publication US8497371B2, “Pipemidic acid derivative autotaxin inhibitors” (University of Memphis Research Foundation, priority 2009, dated 2013).
Entries after “also recorded” stand apart in the source; their conditions may differ.

What was measured:
ATX [1] = biological target: T1, ATX (Homo sapiens, UniProt Q13822); conditions: for Inhibition Mechanism: FS-3 substrate
ATX [2] = biological target: T1, ATX; experiment: biochemical
human NPP7 = biological target: T2, human NPP7 (Homo sapiens, UniProt Q6UWV6); experiment: Determination of NPP7 inhibition (pNPPC substrate); type: biochemical; conditions: 10 μM inhibitor
T2 construct: transfected with human NPP6ex^51 or human NPP7ex expression plasmids; made in house; host or cells: HEK293 cells, transient transfection, pcDNA3.1(+); conditioned medium concentrated about 10x (CCM)
T2 sequence (Q6UWV6 22-433 limits assumed): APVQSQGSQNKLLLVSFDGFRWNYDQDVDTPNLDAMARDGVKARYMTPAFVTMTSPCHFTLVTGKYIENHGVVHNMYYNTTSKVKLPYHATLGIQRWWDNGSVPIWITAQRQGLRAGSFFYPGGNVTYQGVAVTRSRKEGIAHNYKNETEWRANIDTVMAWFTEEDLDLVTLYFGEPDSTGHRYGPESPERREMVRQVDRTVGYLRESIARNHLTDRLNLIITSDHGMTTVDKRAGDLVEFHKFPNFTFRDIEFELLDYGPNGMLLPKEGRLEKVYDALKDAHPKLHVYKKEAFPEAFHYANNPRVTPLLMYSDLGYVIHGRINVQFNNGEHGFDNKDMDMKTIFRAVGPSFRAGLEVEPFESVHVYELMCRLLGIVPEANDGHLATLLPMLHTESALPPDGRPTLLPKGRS
Experimental: (§1) Inhibitor selectivity was assayed using p-nitrophenylphosphoryl-choline (pNPPC) (Sigma-Aldrich, St. Louis, Mo.) as substrate for NPP6 and NPP7. The final volume (60 μL) included 20 μL (CM, NPP6 or CCM, NPP7, 20 μL inhibitor (10 μM including 1% DMSO) in assay buffer, and 20 μL pNPPC (10 mM, NPP6 or 1 NPP7) in assay buffer. NPP6 assay buffer contained 500 mM NaCl, 0.05% Triton X-100, 100 mM Tris-HCl (pH 9.0), whereas NPP7 assay buffer was comprised of 50 mM Tris HCl, pH 8.5, 150 mM NaCl, and 10 mM taurocholic acid. However, unlike the published methods, EDTA was not added to the NPP7 assay buffer. All assays were performed in 96-well, half area plates (Corning Inc., Lowell, Mass.) at 37° C. with data collected at 2 minute intervals using a Synergy2 absorbance plate reader (BioTek, Winooski, Vt.). Results are shown at the one hour time point, when all absorbance changes as a function of time were linear. Readings were normalized to vehicle control after subtraction of absorbance in the absence of CM or CCM. Data are shown as the mean±S.D. of at least three wells. All experiments were repeated twice and representative results are shown.
(§2) Assays were performed with CM or CCM from HEK293 cells transiently transfected with NPP6 and 7 expression plasmids, respectively. HEK293 cells were seeded in Dulbecco's modified Eagle's medium (DMEM) containing 10% fetal bovine serum, 100 U/ml penicillin, 100 μg/ml streptomycin (Hyclone, Logan, Utah), and 2 mM L-glutamine. HEK293 cells were grown overnight at 37° C. under 5% CO2 to 80% confluence. The cells were then transfected with human NPP6ex^51 or human NPP7ex expression plasmids in the pcDNA3.1(+) mammalian vector in the presence of Polyfect Transfection Reagent (Hyclone, Logan, Utah). Six hours after transfection, the culture medium was changed to serum free DMEM containing L-glutamine and cells were incubated for 48 hours. Expressed protein was collected (NPP6 and NPP7) and concentrated ˜10×(NPP7) using 10 kDa molecular weight cutoff filters (Millipore, Beverly, Mass.) in an Amicon pressure cell (Millipore, Beverly, Mass.).

human NPP6 = biological target: T3, human NPP6 (Homo sapiens, UniProt Q6UWR7); experiment: Determination of NPP6 inhibition (pNPPC substrate); type: biochemical; conditions: 10 μM inhibitor
T3 construct: transfected with human NPP6ex^51 or human NPP7ex expression plasmids; made in house; host or cells: HEK293 cells, transient transfection, pcDNA3.1(+); unconcentrated conditioned medium (CM)
T3 sequence (Q6UWR7 23-419 limits assumed): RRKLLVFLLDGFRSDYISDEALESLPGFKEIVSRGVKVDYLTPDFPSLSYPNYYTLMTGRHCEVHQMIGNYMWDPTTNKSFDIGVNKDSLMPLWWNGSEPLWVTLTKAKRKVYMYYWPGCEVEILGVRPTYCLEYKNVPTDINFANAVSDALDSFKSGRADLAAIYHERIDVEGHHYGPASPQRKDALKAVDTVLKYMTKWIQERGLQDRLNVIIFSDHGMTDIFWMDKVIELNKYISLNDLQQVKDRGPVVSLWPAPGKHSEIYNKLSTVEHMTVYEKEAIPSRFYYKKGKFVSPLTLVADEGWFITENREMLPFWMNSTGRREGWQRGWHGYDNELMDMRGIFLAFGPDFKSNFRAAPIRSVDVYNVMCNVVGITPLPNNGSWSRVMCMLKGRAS
Experimental: as §1, §2

ATX [3] = biological target: T1, ATX; experiment: ATX inhibition assay with FS-3 substrate; type: biochemical; parameters: conditioned serum-free medium (CCM) from MDA-MB-435 cells as the source of ATX; endogenous in cells; host or cells: MDA-MB-435 cells (about 10x concentrated serum-free conditioned medium); conditions: for % Response at 10 μM (FS-3): 10 μM compound, FS-3 hydrolysis normalized to vehicle control (low = strong inhibition), mean ± S.D.; for single dose response comparison by aromatic substituent and position: Table 2, same values as % Response at 10 μM; for inhibition at 10 µM: single dose 10 μM, % inhibition, read-out: inhibition of ATX-mediated hydrolysis of FS-3
Experimental: ATX inhibition was assayed using the substrate FS-3 (Echelon Biosciences, Inc., Salt Lake City, Utah, USA). The FS-3 assay used ˜10 times concentrated conditioned serum-free medium (CCM) from MDA-MB-435 cells as the source of ATX, while CCM comprised one-third of the total volume.
All assays were performed in 96-well plates with data read at 1 minute intervals by a Synergy2 system (BioTek, Winooski, Vt.). […] Results are shown at one hour, at which point all fluorescence and absorbance changes as a function of time were linear. All readings were normalized to vehicle control after subtraction of fluorescence in the absence of CCM. Data are shown as the mean±S.D. of at least three wells. All experiments were repeated at least twice and results are shown.

[4] = Ki (μM), FS-3 substrate, for mixed mode Ki=IC50 assumed
[5] = Ki (nM), competitive inhibitors

| SMILES | mechanism of ATX inhibition (ATX [1]) | potency relative to the lead compound (ATX [1]) | Inhibition Mechanism (ATX [1]) | Ki (ATX [2]; Ki) [µM] | Ki (ATX [2]; [4]) [µM] | effect on activity of NPP7 (human NPP7) | effect on activity of NPP6 (human NPP6) | % Response at 10 μM (FS-3) (ATX [3]) [%] | IC50 (ATX [3]; FS-3 substrate) [nM] | single dose response comparison by aromatic substituent and position (ATX [3]) | inhibition at 10 µM (ATX [3]) [%] | Ki (ATX [2]; [5]) [µM] | IC50 (ATX [3]; Substrate FS-3 (1 μM)) [nM] |
| --- | --- | --- | --- | --- | --- | --- | --- | --- | --- | --- | --- | --- | --- |
| CCn1cc(C(=O)O)c(=O)c2cnc(N3CCN(C(=S)Nc4ccc(Cl)cc4)CC3)nc21 [Compound 28, 2-(4-{[(4-chlorophenyl)amino]carbonothioyl}-1-piperazinyl)-8-ethyl-5-oxo-5,8-dihydropyrido[2,3-d]pyrimidine-6-carboxylic acid] | mixed-mode | as potent as or significantly less potent than the lead | Mixed | 1.7 to 13.5 | 10.7 | None of the compounds affected the activity | None of the compounds affected the activity | 42.4 ± 0.9 | 10700 | 42.4 ± 0.9 | ≥ 50 | – | – |
| CCn1cc(C(=O)O)c(=O)c2cnc(N3CCN(C(=S)Nc4ccc5nsnc5c4)CC3)nc21 [Compound 7, 2-(4-{[(3-benzothiadiazolphenyl)amino]carbonothioyl}-1-piperazinyl)-8-ethyl-5-oxo-5,8-dihydropyrido[2,3-d]pyrimidine-6-carboxylic acid] | competitive | at least as potent as the lead compound | Competitive | – | 0.43 | None of the compounds affected the activity | None of the compounds affected the activity | 28.6 ± 2.0 | 12100 ± 2400 | – | ≥ 50 | 0.03 to 0.43 | 12100 |
| CCn1cc(C(=O)O)c(=O)c2cnc(N3CCN(C(=S)Nc4ccc(C(F)(F)F)cc4)CC3)nc21 [Compound 31, 2-(4-{[(4-trifluoromethylphenyl)amino]carbonothioyl}-1-piperazinyl)-8-ethyl-5-oxo-5,8-dihydropyrido[2,3-d]pyrimidine-6-carboxylic acid] | uncompetitive | at least as potent as the lead compound; also recorded: approximately equivalent to the lead | Uncompetitive | – | 1.4 | None of the compounds affected the activity | None of the compounds affected the activity | 36.2 ± 0.9 | 1500 | 36.2 ± 0.9 | ≥ 50 | – | 1500 |
| CCn1cc(C(=O)O)c(=O)c2cnc(N3CCN(C(=S)Nc4cccc(C)c4)CC3)nc21 [Compound 13, 2-(4-{[(3-methylphenyl)amino]carbonothioyl}-1-piperazinyl)-8-ethyl-5-oxo-5,8-dihydropyrido[2,3-d]pyrimidine-6-carboxylic acid] | mixed-mode | as potent as or significantly less potent than the lead | Mixed | 1.7 to 13.5 | 13.5 | None of the compounds affected the activity | None of the compounds affected the activity | 41.9 ± 0.8 | 13500 ± 1300 | – | ≥ 50 | – | – |
| CCn1cc(C(=O)O)c(=O)c2cnc(N3CCN(C(=S)Nc4cccc(C(F)(F)F)c4)CC3)nc21 [Compound 11, 2-(4-{[(3-trifluoromethylphenyl)amino]carbonothioyl}-1-piperazinyl)-8-ethyl-5-oxo-5,8-dihydropyrido[2,3-d]pyrimidine-6-carboxylic acid] | competitive | at least as potent as the lead compound | Competitive | 0.03 | – | None of the compounds affected the activity | None of the compounds affected the activity | 0.3 ± 0.6 | 900 ± 300 | 0.3 ± 0.6 | – | 0.03 to 0.43 | 900 ± 300 |
| CCn1cc(C(=O)O)c(=O)c2cnc(N3CCN(C(=S)Nc4cc(C(F)(F)F)cc(C(F)(F)F)c4)CC3)nc21 [Compound 18, 2-(4-{[(3,5-bis(trifluoromethyl)phenyl)amino]carbonothioyl}-1-piperazinyl)-8-ethyl-5-oxo-5,8-dihydropyrido[2,3-d]pyrimidine-6-carboxylic acid] | competitive | at least as potent as the lead compound | Competitive | 0.16 | – | None of the compounds affected the activity | None of the compounds affected the activity | 34.1 ± 3.0 | 4400 ± 1500 | – | ≥ 50 | 0.03 to 0.43 | 4400 ± 1500 |
